A word on the melting point: it is the temperature of the solid-liquid transition. In turn, `CCn1c(-c2ccc(N3CCCS3(=O)=O)cc2)c(C#N)c2ccc(OCCOC)cc21` [Compound 1332] showed a melting point of 213 to 215 °C.
As for `CCn1c(-c2ccc(N3CCCS3(=O)=O)cc2)c(C#N)c2ccc(OCCOCCOC)cc21` [Compound 1333], the figure is 160 to 164 °C; as for `N#Cc1c(-c2ccc(NS(=O)(=O)C3CC3)cc2)n(CC2CCCO2)c2cc(OC(F)F)ccc12` (stereo not drawn) [Compound 1335], 179 to 180 °C; as for `CC(C)S(=O)(=O)Nc1ccc(-c2c(C#N)c3ccc(OC(F)F)cc3n2CC2CCCO2)cc1` (stereo not drawn) [Compound 1336], 173 to 176 °C.
Next, `CCOc1ccc(-c2c(C#N)c3ccc(N4CCN(C)CC4)cc3n2CC)cc1` [Compound 1338]: 186 to 187 °C; `CC(C)n1c(-c2ccc(N(S(C)(=O)=O)S(C)(=O)=O)cc2)c(C#N)c2ccc(OC(F)F)cc21` [Compound 1342]: 232 to 234 °C.
Next, `CCn1c(-c2ccc(NS(=O)(=O)CC)cc2)c(C#N)c2ccc(C(=O)O)cc21` [Compound 1344]: 294 to 296 °C; `CCN(CC)C(=O)Oc1ccc(-c2c(C#N)c3ccc(OC)cc3n2CC)cc1` [Compound 1348]: 134.2 to 139.5 °C; `C=COC(=O)Nc1cccc(-c2c(C#N)c3ccc(OCC)cc3n2C2CCC2)c1` [Compound 1355]: 163 to 164 °C.
Turning to `CCn1c(-c2ccc(N3CCCS3(=O)=O)cc2)c(C#N)c2ccc(N3CCN(S(=O)(=O)C4CC4)CC3)cc21` [Compound 1357], the melting point was 278 to 280 °C.
As for `CCn1c(-c2ccc(N3CCCS3(=O)=O)cc2)c(C#N)c2ccc(N3CCN(C(=O)c4ccccc4)CC3)cc21` [Compound 1358], the figure is 260 to 261 °C.
Next, `CCn1c(-c2ccc(NS(=O)(=O)CC)cc2)c(C#N)c2ccc(C(=O)N3CCOCC3)cc21` [Compound 1361]: 238 to 241 °C; `CCn1c(-c2ccc(NS(=O)(=O)CC)cc2)c(C#N)c2ccc(C(=O)N3CCN(c4ccccc4)CC3)cc21` [Compound 1362]: 236 to 238 °C.
In turn, `CCn1c(-c2ccc(NS(=O)(=O)CC)cc2)c(C#N)c2ccc(C(=O)N3CCCC3)cc21` [Compound 1363] had a melting point of 168 to 171 °C.
As for `CCn1c(-c2ccc(N)cc2)c(C#N)c2ccc(OCCOC)cc21` [Compound 1366], the figure is 168 to 169 °C; as for `CCn1c(-c2ccc(NC(=O)OC)cc2)c(C#N)c2ccc(OCCOC)cc21` [Compound 1367], 191 to 194 °C; as for `CCOC(=O)Nc1ccc(-c2c(C#N)c3ccc(OCCOC)cc3n2CC)cc1` [Compound 1368], 175 to 177 °C.
As for `CCCOC(=O)Nc1ccc(-c2c(C#N)c3ccc(OCCOC)cc3n2CC)cc1` [Compound 1369], the figure is 154 to 156 °C; as for `CCn1c(-c2ccc(NC(=O)OCC(C)C)cc2)c(C#N)c2ccc(OCCOC)cc21` [Compound 1370], 145 to 148 °C.
Next, `CCn1c(-c2ccc(NC(=O)OCCF)cc2)c(C#N)c2ccc(OCCOC)cc21` [Compound 1371]: 166 to 168 °C; `CCn1c(-c2ccc(NC(=O)OCc3ccccc3)cc2)c(C#N)c2ccc(OCCOC)cc21` [Compound 1372]: 107 to 109 °C; `CCn1c(-c2ccc(NC(=O)OCCCl)cc2)c(C#N)c2ccc(OCCOC)cc21` [Compound 1373]: 148 to 151 °C.
Regarding `CCn1c(-c2cccc(NC(=O)N3CCN(C)CC3)c2)c(C#N)c2ccc(OC)cc21` [Compound 1375], the melting point was in the range of 108 to 120 °C.
The molecule `CCN(CC)C(=O)Nc1ccc(-c2c(C#N)c3ccc(OC)cc3n2CC)cc1` [Compound 1376] gave a melting point of 165 to 167 °C.
As for `CCN(CC)C(=O)Nc1ccc(-c2c(C#N)c3ccc(OCCOC)cc3n2CC)cc1` [Compound 1378], the figure is 147 to 150 °C.
With `CCn1c(-c2ccc(NC(=O)N3CCC(C)CC3)cc2)c(C#N)c2ccc(OCCOC)cc21` [Compound 1379], the melting point fell in the range of 152 to 155 °C.
As for `CCn1c(-c2ccc(NC(=O)N3CCCCC3)cc2)c(C#N)c2ccc(OCCOC)cc21` [Compound 1380], the figure is 216 to 218 °C; as for `CCn1c(-c2ccc(NC(=O)N3CCCC3)cc2)c(C#N)c2ccc(OCCOC)cc21` [Compound 1381], 151 to 154 °C; as for `CCn1c(-c2ccc(NC(=O)N(CCOC)CCOC)cc2)c(C#N)c2ccc(OCCOC)cc21` [Compound 1382], 110 to 114 °C.
Regarding `CCn1c(-c2ccc(NC(=O)N(C)Cc3ccccc3)cc2)c(C#N)c2ccc(OCCOC)cc21` [Compound 1384], the melting point is 175 to 176 °C.
Consider `CCn1c(-c2ccc(OC(=O)N(C)CCOC)cc2)c(C#N)c2ccc(OC)cc21` [Compound 1385], for which the melting point was in the range of 122 to 127 °C.
Next, `CCCn1c(-c2ccc(NC(=O)N(CC)CC)cc2)c(C#N)c2ccc(OC)cc21` [Compound 1386]: 213 to 214 °C.
As to `CCCNC(=O)Nc1ccc(-c2c(C#N)c3ccc(O[Si](C)(C)C(C)(C)C)cc3n2CC)cc1` [Compound 1387], the melting point is 65 to 70 °C.
As for `CCCn1c(-c2ccc(NC(=O)NCc3ccco3)cc2)c(C#N)c2ccc(OC)cc21` [Compound 1388], the figure is 161 to 164 °C; as for `CCn1c(-c2ccc(NC(=O)OC(C)(C)C)cc2)c(C#N)c2ccc(N3CCN(CC4CC4)CC3)cc21` [Compound 1389], 171 to 173 °C.
As for `CCOc1ccc2c(C#N)c(-c3ccc(NC(=O)NCCN4CCOCC4)cc3)n(C3CCC3)c2c1` [Compound 1390], the figure is 217 to 223 °C; as for `CCOc1ccc2c(C#N)c(-c3ccc(NC(=O)NCC(C)O)cc3)n(C3CCC3)c2c1` (stereo not drawn) [Compound 1391], 195 to 200 °C.
Next, `CCOc1ccc2c(C#N)c(-c3ccc(NC(=O)NCCc4ccccn4)cc3)n(C3CCC3)c2c1` [Compound 1392]: 193 to 197 °C; `CCn1c(-c2ccc(NC(=O)C3CC3)cc2)c(C#N)c2ccc(OCCNCCN3CCOCC3)cc21` [Compound 1394]: 96.5 to 100.6 °C.
`CCn1c(-c2ccc(NC(=O)C3CC3)cc2)c(C#N)c2ccc(OCCN3CCCN(C)CC3)cc21` [Compound 1395] had a melting point of 95.9 to 99 °C.
With `CCOc1ccc2c(C#N)c(-c3ccc(NC(=O)NCc4ccco4)cc3)n(C3CCC3)c2c1` [Compound 1396], the melting point is 192 to 198 °C.
Next, `COCCOc1ccc2c(C#N)c(-c3ccc(NC(=O)OC(C)C)cc3)n(C3CCC3)c2c1` [Compound 1399]: 125 to 126 °C.
As for `COCCOc1ccc2c(C#N)c(-c3ccc(NC(=O)OC4CCCC4)cc3)n(C3CCC3)c2c1` [Compound 1400], the figure is 168 to 169 °C; as for `COCCOc1ccc2c(C#N)c(-c3ccc(NC(=O)Oc4ccc(Cl)cc4)cc3)n(C3CCC3)c2c1` [Compound 1401], 182 to 183 °C.
As for `COCCOc1ccc2c(C#N)c(-c3ccc(NC(=O)OCc4ccccc4)cc3)n(C3CCC3)c2c1` [Compound 1402], the figure is 144 to 145 °C; as for `CCn1c(-c2ccc(NC(=O)NCCc3ccccc3)cc2)c(C#N)c2ccc(OCCOC)cc21` [Compound 1403], 168 to 171 °C; as for `CCn1c(-c2ccc(NC(=O)NC(C)C)cc2)c(C#N)c2ccc(OCCOC)cc21` [Compound 1405], 182 to 185 °C.
The molecule `CCn1c(-c2ccc(NC(=O)OC(C)C)cc2)c(C#N)c2ccc(OCCOC)cc21` [Compound 1406] yielded a melting point of 141 to 144 °C.
Next, `CCn1c(-c2ccc(NC(=O)OC3CCCC3)cc2)c(C#N)c2ccc(OCCOC)cc21` [Compound 1407]: 137 to 140 °C; `CCOc1ccc2c(C#N)c(-c3ccc(NC(=O)NCCCOC)cc3)n(C3CCC3)c2c1` [Compound 1409]: 152 to 155 °C; `CCCS(=O)(=O)Nc1ccc(-c2c(C#N)c3ccc(N4CCN(CC5CC5)CC4)cc3n2CC)cc1` [Compound 1411]: 173 to 174 °C.
As for `CCn1c(-c2ccc(NC(=O)C3CC3)cc2)c(C#N)c2ccc(OCCN(C)CCN(C)C)cc21` [Compound 1413], the figure is 90.2 to 95.4 °C.
Turning to `CCn1c(-c2ccc(NC(=O)C3CC3)cc2)c(C#N)c2ccc(OCCN3CCN(CCOC)CC3)cc21` [Compound 1414], the melting point fell in the range of 163.9 to 168.8 °C.
In turn, `CCCNC(=O)Nc1ccc(-c2c(C#N)c3ccc(OCc4csc(C)n4)cc3n2CC)cc1` [Compound 1415] registered a melting point of 220 to 222 °C.
As for `COCCOc1ccc2c(C#N)c(-c3ccc(NS(=O)(=O)C4CC4)cc3)n(C3CCC3)c2c1` [Compound 1417], the figure is 192 to 193 °C; as for `CC(C)OC(=O)Nc1ccc(-c2c(C#N)c3ccc(OCC(O)CN4CCOCC4)cc3n2C2CCC2)cc1` (stereo not drawn) [Compound 1418], 183 to 185 °C.
The molecule `CC(C)NC(=O)Nc1ccc(-c2c(C#N)c3ccc(OCC(O)Cn4ccnc4)cc3n2C2CCC2)cc1` (stereo not drawn) [Compound 1421] yielded a melting point of 138 to 140 °C.
Next, `CCOc1ccc2c(C#N)c(-c3ccc(NC(=O)OCc4cnccn4)cc3)n(C3CCC3)c2c1` [Compound 1426]: 159 to 164 °C; `CC(C)OC(=O)Nc1ccc(-c2c(C#N)c3ccc(OCCCNC4CC4)cc3n2C2CCC2)cc1` [Compound 1430]: 122 to 125 °C.
The molecule `CCOc1ccc2c(C#N)c(-c3ccc(NC(=O)OCc4cccnc4)cc3)n(C3CCC3)c2c1` [Compound 1432] had a melting point of 187 to 194 °C.
Next, `CC(C)OC(=O)Nc1ccc(-c2c(C#N)c3ccc(OCCNC4CCC4)cc3n2C2CCC2)cc1` [Compound 1434]: 221 to 223 °C.
As for `CC(C)OC(=O)Nc1ccc(-c2c(C#N)c3ccc(OCCN4CCC(O)C4)cc3n2C2CCC2)cc1` (stereo not drawn) [Compound 1435], the figure is 161 to 165 °C.
Next, `COCCOc1ccc2c(C#N)c(-c3ccc(NC(=O)OC(c4ccccc4)C4CC4)cc3)n(C3CC3)c2c1` (stereo not drawn) [Compound 1437]: 74 to 76 °C.

(Values after US7772271B2 (priority 2004, dated 2010).)
